Measurements reported in PubChem BioAssay (NCI).
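Test compounds were applied to cells in 96-well plates for 48 hours at 5 doses. The concentration for full growth arrest is given as TGI.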

Tests used:
Test in all cases: NCI tumour cell line growth inhibition, 48 h
PC-3 prostate = system: PC-3 prostate
K-562 leukemia = system: K-562 leukemia
HS 578T breast = system: HS 578T breast
CCRF-CEM leukemia = system: CCRF-CEM leukemia
MALME-3M melanoma = system: MALME-3M melanoma
A549 NSCLC = system: A549 NSCLC
M14 melanoma = system: M14 melanoma
IGROV1 ovarian = system: IGROV1 ovarian
UACC-257 melanoma = system: UACC-257 melanoma
HCC-2998 colon = system: HCC-2998 colon
SR leukemia = system: SR leukemia
SK-OV-3 ovarian = system: SK-OV-3 ovarian
COLO 205 colon = system: COLO 205 colon
NCI-H226 lung = system: NCI-H226 lung
OVCAR-8 ovarian = system: OVCAR-8 ovarian
SNB-19 CNS = system: SNB-19 CNS
OVCAR-3 ovarian = system: OVCAR-3 ovarian
SNB-75 CNS = system: SNB-75 CNS
MOLT-4 leukemia = system: MOLT-4 leukemia
SF-268 CNS = system: SF-268 CNS
NCI-H522 lung = system: NCI-H522 lung
T-47D breast = system: T-47D breast
HCT-15 colon = system: HCT-15 colon
HCT-116 colon = system: HCT-116 colon
RXF 393 renal = system: RXF 393 renal
HOP-92 NSCLC = system: HOP-92 NSCLC
TK-10 renal = system: TK-10 renal
SN12C renal = system: SN12C renal
SF-295 CNS = system: SF-295 CNS
RPMI-8226 leukemia = system: RPMI-8226 leukemia
HT29 colon = system: HT29 colon
HOP-62 NSCLC = system: HOP-62 NSCLC
OVCAR-5 ovarian = system: OVCAR-5 ovarian
HL-60(TB) leukemia = system: HL-60(TB) leukemia
SW-620 colon = system: SW-620 colon
UO-31 renal = system: UO-31 renal
786-0 renal = system: 786-0 renal
DU-145 prostate = system: DU-145 prostate
NCI-H460 lung = system: NCI-H460 lung
SF-539 CNS = system: SF-539 CNS
SK-MEL-28 melanoma = system: SK-MEL-28 melanoma
SK-MEL-2 melanoma = system: SK-MEL-2 melanoma
UACC-62 melanoma = system: UACC-62 melanoma
MDA-MB-435 = system: MDA-MB-435
KM12 colon = system: KM12 colon
SK-MEL-5 melanoma = system: SK-MEL-5 melanoma
BT-549 breast = system: BT-549 breast
MCF7 breast = system: MCF7 breast
EKVX NSCLC = system: EKVX NSCLC
NCI/ADR-RES ovarian = system: NCI/ADR-RES ovarian
ACHN renal = system: ACHN renal
U251 CNS = system: U251 CNS
A498 renal = system: A498 renal
NCI-H23 lung = system: NCI-H23 lung
MDA-MB-231 breast = system: MDA-MB-231 breast
MDA-N = system: MDA-N
CAKI-1 renal = system: CAKI-1 renal
OVCAR-4 ovarian = system: OVCAR-4 ovarian
LOX IMVI melanoma = system: LOX IMVI melanoma

`CCOC(=O)N/N=C/C1=NN(C(=O)OCC)S(=O)C1C` (configuration not stated) was tested, and the TGI (PC-3 prostate) was greater than 100 µM, the TGI (K-562 leukemia) was greater than 100 µM and the TGI (HS 578T breast) was greater than 100 µM. It also gave a TGI (CCRF-CEM leukemia) greater than 100 µM, a TGI (MALME-3M melanoma) greater than 100 µM and a TGI (A549 NSCLC) greater than 100 µM. For the same compound, the TGI (M14 melanoma) was greater than 100 µM, the TGI (IGROV1 ovarian) was greater than 100 µM and the TGI (UACC-257 melanoma) was greater than 100 µM. The TGI (HCC-2998 colon) was greater than 100 µM, the TGI (SR leukemia) was greater than 100 µM and the TGI (SK-OV-3 ovarian) was greater than 100 µM. The TGI (COLO 205 colon) was greater than 100 µM, the TGI (NCI-H226 lung) was greater than 100 µM and the TGI (OVCAR-8 ovarian) was greater than 100 µM. The TGI (SNB-19 CNS) was greater than 100 µM, the TGI (OVCAR-3 ovarian) was greater than 100 µM and the TGI (SNB-75 CNS) was greater than 100 µM. For the same compound, the TGI (MOLT-4 leukemia) was greater than 100 µM, the TGI (SF-268 CNS) was greater than 100 µM and the TGI (NCI-H522 lung) was greater than 100 µM. The TGI (T-47D breast) was greater than 100 µM, the TGI (HCT-15 colon) was greater than 100 µM and the TGI (HCT-116 colon) was greater than 100 µM. The TGI (RXF 393 renal) was greater than 100 µM, the TGI (HOP-92 NSCLC) was greater than 100 µM and the TGI (TK-10 renal) was greater than 100 µM. It also gave a TGI (SN12C renal) greater than 100 µM, a TGI (SF-295 CNS) greater than 100 µM and a TGI (RPMI-8226 leukemia) greater than 100 µM. It also gave a TGI (HT29 colon) greater than 100 µM, a TGI (HOP-62 NSCLC) greater than 100 µM and a TGI (OVCAR-5 ovarian) greater than 100 µM. It also gave a TGI (HL-60(TB) leukemia) greater than 100 µM, a TGI (SW-620 colon) greater than 100 µM and a TGI (UO-31 renal) greater than 100 µM. The TGI (786-0 renal) was greater than 100 µM, the TGI (DU-145 prostate) was greater than 100 µM and the TGI (NCI-H460 lung) was greater than 100 µM. The TGI (SF-539 CNS) was greater than 100 µM, the TGI (SK-MEL-28 melanoma) was greater than 100 µM and the TGI (SK-MEL-2 melanoma) was greater than 100 µM. For the same compound, the TGI (UACC-62 melanoma) was greater than 100 µM, the TGI (MDA-MB-435) was greater than 100 µM and the TGI (KM12 colon) was greater than 100 µM. It also gave a TGI (SK-MEL-5 melanoma) greater than 100 µM, a TGI (BT-549 breast) greater than 100 µM and a TGI (MCF7 breast) greater than 100 µM. For the same compound, the TGI (EKVX NSCLC) was greater than 100 µM, the TGI (NCI/ADR-RES ovarian) was greater than 100 µM and the TGI (ACHN renal) was greater than 100 µM. It also gave a TGI (U251 CNS) greater than 100 µM, a TGI (A498 renal) greater than 100 µM and a TGI (NCI-H23 lung) greater than 100 µM. For the same compound, the TGI (MDA-MB-231 breast) was greater than 100 µM, the TGI (MDA-N) was greater than 100 µM and the TGI (CAKI-1 renal) was greater than 100 µM. It also gave a TGI (OVCAR-4 ovarian) greater than 100 µM.
For `O=C(c1ccsc1)c1cc2c(s1)C(=O)c1ccsc1C2=O`, the TGI (PC-3 prostate) was 0.933 µM, the TGI (HS 578T breast) was 0.549 µM and the TGI (CCRF-CEM leukemia) was greater than 100 µM. The TGI (MALME-3M melanoma) was 0.0845 µM, the TGI (A549 NSCLC) was 1.25 µM and the TGI (M14 melanoma) was 0.247 µM. For the same compound, the TGI (IGROV1 ovarian) was 0.403 µM, the TGI (UACC-257 melanoma) was 0.324 µM and the TGI (HCC-2998 colon) was 1.56 µM. It also gave a TGI (SR leukemia) greater than 100 µM, a TGI (SK-OV-3 ovarian) of 3.09 µM and a TGI (COLO 205 colon) of 2.97 µM. For the same compound, the TGI (NCI-H226 lung) was 1.11 µM, the TGI (OVCAR-8 ovarian) was 0.424 µM and the TGI (SNB-19 CNS) was 0.354 µM. It also gave a TGI (OVCAR-3 ovarian) of 0.392 µM, a TGI (SNB-75 CNS) of 0.311 µM and a TGI (MOLT-4 leukemia) greater than 100 µM. The TGI (SF-268 CNS) was 0.405 µM, the TGI (NCI-H522 lung) was 0.323 µM and the TGI (T-47D breast) was 0.675 µM. It also gave a TGI (HCT-15 colon) of 0.305 µM, a TGI (HCT-116 colon) of 0.468 µM and a TGI (RXF 393 renal) of 0.385 µM. For the same compound, the TGI (HOP-92 NSCLC) was 1.25 µM, the TGI (TK-10 renal) was 1.25 µM and the TGI (SN12C renal) was 0.125 µM. It also gave a TGI (SF-295 CNS) of 0.324 µM, a TGI (HT29 colon) of 4.08 µM and a TGI (HOP-62 NSCLC) of 0.431 µM. The TGI (OVCAR-5 ovarian) was 1.01 µM, the TGI (HL-60(TB) leukemia) was greater than 100 µM and the TGI (SW-620 colon) was 0.341 µM. The TGI (UO-31 renal) was 0.25 µM, the TGI (786-0 renal) was 0.356 µM and the TGI (DU-145 prostate) was 0.296 µM. For the same compound, the TGI (NCI-H460 lung) was 0.367 µM, the TGI (SF-539 CNS) was 0.138 µM and the TGI (SK-MEL-28 melanoma) was 0.305 µM. The TGI (SK-MEL-2 melanoma) was 0.982 µM, the TGI (UACC-62 melanoma) was 0.385 µM and the TGI (MDA-MB-435) was 0.0696 µM. It also gave a TGI (KM12 colon) of 0.434 µM, a TGI (SK-MEL-5 melanoma) of 0.104 µM and a TGI (BT-549 breast) of 0.198 µM. For the same compound, the TGI (MCF7 breast) was 0.383 µM, the TGI (EKVX NSCLC) was 0.373 µM and the TGI (NCI/ADR-RES ovarian) was 0.407 µM. For the same compound, the TGI (ACHN renal) was 0.241 µM, the TGI (U251 CNS) was 0.34 µM and the TGI (A498 renal) was 2.94 µM. It also gave a TGI (NCI-H23 lung) of 0.308 µM, a TGI (MDA-MB-231 breast) of 0.496 µM and a TGI (MDA-N) of 0.0512 µM. The TGI (CAKI-1 renal) was 1.57 µM and the TGI (OVCAR-4 ovarian) was 0.335 µM.
With `NC(N)=NS(=O)(=O)c1ccc(Nc2c3ccccc3nc3ccc(C(=O)Nc4ccc(S(N)(=O)=O)cc4)cc23)cc1` the TGI (PC-3 prostate) was greater than 100 µM, the TGI (K-562 leukemia) was greater than 100 µM and the TGI (HS 578T breast) was greater than 100 µM. The TGI (CCRF-CEM leukemia) was greater than 100 µM, the TGI (MALME-3M melanoma) was greater than 100 µM and the TGI (A549 NSCLC) was greater than 100 µM. It also gave a TGI (M14 melanoma) greater than 100 µM, a TGI (IGROV1 ovarian) greater than 100 µM and a TGI (UACC-257 melanoma) greater than 100 µM. It also gave a TGI (HCC-2998 colon) greater than 100 µM, a TGI (SR leukemia) greater than 100 µM and a TGI (SK-OV-3 ovarian) greater than 100 µM. For the same compound, the TGI (COLO 205 colon) was greater than 100 µM, the TGI (NCI-H226 lung) was greater than 100 µM and the TGI (OVCAR-8 ovarian) was greater than 100 µM. The TGI (SNB-19 CNS) was greater than 100 µM, the TGI (OVCAR-3 ovarian) was greater than 100 µM and the TGI (SNB-75 CNS) was greater than 100 µM. It also gave a TGI (MOLT-4 leukemia) greater than 100 µM, a TGI (SF-268 CNS) greater than 100 µM and a TGI (NCI-H522 lung) greater than 100 µM. The TGI (T-47D breast) was greater than 100 µM, the TGI (HCT-15 colon) was greater than 100 µM and the TGI (HCT-116 colon) was greater than 100 µM. For the same compound, the TGI (RXF 393 renal) was greater than 100 µM, the TGI (HOP-92 NSCLC) was greater than 100 µM and the TGI (TK-10 renal) was greater than 100 µM. The TGI (SN12C renal) was greater than 100 µM, the TGI (SF-295 CNS) was greater than 100 µM and the TGI (RPMI-8226 leukemia) was greater than 100 µM. It also gave a TGI (HT29 colon) greater than 100 µM, a TGI (LOX IMVI melanoma) greater than 100 µM and a TGI (HOP-62 NSCLC) greater than 100 µM. It also gave a TGI (OVCAR-5 ovarian) greater than 100 µM, a TGI (HL-60(TB) leukemia) greater than 100 µM and a TGI (SW-620 colon) greater than 100 µM. The TGI (UO-31 renal) was greater than 100 µM, the TGI (786-0 renal) was greater than 100 µM and the TGI (DU-145 prostate) was greater than 100 µM. The TGI (NCI-H460 lung) was greater than 100 µM, the TGI (SF-539 CNS) was greater than 100 µM and the TGI (SK-MEL-28 melanoma) was greater than 100 µM. For the same compound, the TGI (SK-MEL-2 melanoma) was greater than 100 µM, the TGI (UACC-62 melanoma) was greater than 100 µM and the TGI (MDA-MB-435) was greater than 100 µM. For the same compound, the TGI (KM12 colon) was greater than 100 µM, the TGI (SK-MEL-5 melanoma) was greater than 100 µM and the TGI (BT-549 breast) was greater than 100 µM. It also gave a TGI (MCF7 breast) greater than 100 µM, a TGI (EKVX NSCLC) greater than 100 µM and a TGI (NCI/ADR-RES ovarian) greater than 100 µM. It also gave a TGI (ACHN renal) greater than 100 µM, a TGI (U251 CNS) greater than 100 µM and a TGI (NCI-H23 lung) greater than 100 µM. The TGI (MDA-MB-231 breast) was greater than 100 µM, the TGI (MDA-N) was greater than 100 µM and the TGI (CAKI-1 renal) was greater than 100 µM. The TGI (OVCAR-4 ovarian) was greater than 100 µM.
